Data: PMC11555678, “Improved Broad Spectrum Antifungal Drug Synergies with Cryptomycin, a Cdc50-Inspired Antifungal Peptide” (ACS Infectious Diseases, 2024)
In brackets after ≈: the same amount, converted by molar mass. Read-outs that look alike come from different tables or passages of the source.

Legend:
Cg FKS2 S663P = experiment: Drug synergy (MIC in peptide-supplemented media); assay type: cell-based, Candida glabrata; details: for MIC of antifungal in combination with KKOO / MIC of antifungal in combination with KKOO-NH2: RPMI1640, 37 °C, 48 h
Description: (§1) All microdilution assays with fungi were carried out in accordance with CLSI protocols from M27 for yeasts and M38 for filamentous fungi, respectively, unless otherwise specified.[64],[65] Briefly, 96-well plates were charged with RPMI1640 media, with operating volume in the first column, 200 μL, and half operating volume, 100 μL, in the remaining wells. Drug stock solution in DMSO was aliquoted into the first well in each row. Half of the volume in the dosed well was serially diluted 2-fold until column 11. Column 11 was used as the negative growth control, and column 12 was used as the positive growth control. ON yeast cultures in YPD were washed twice in DD-H2O, resuspended in PBS, and adjusted to 5000 cfu/mL in RPMI. The 96-well plate was inoculated with 100 μL aliquots of cell suspension per well. Plates were incubated at 37 °C for 2 days.
(§2) To assess drug synergy, the initial media charged to the plate contained the peptide at twice the final operating concentration; the remaining processing steps were identical to the MIC experiment. Upon addition of 100 μL of inoculant, the final operating concentration was achieved. Control MIC plates were prepared alongside drug synergy plates to account for the day-to-day variability in any individual MIC. FIC index is computed using eq 1. All MIC assays and drug synergy assays were completed with two technical replicates per 96-well plate and a minimum of two biological replicates per drug combination. If a difference in MIC between the two technical replicates on the plate were observed, only the higher concentration was reported as the MIC to reduce the possibility of type 1 error (false positive) [drawing 1] 1

C. albicans SC5413 = experiment: microbe, parasite or virus in culture; assay type: cell-based, Candida albicans; details: Candida albicans, SC5413; compound alone; RPMI1640, 37 °C, 48 h; read-out: MIC
Outline: (§3)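 Yeasts were grown overnight in YPD, washed twice in water, taken up in PBS and diluted to 5000 cfu/mL in RPMI. They were then added to plates holding 2-fold serial drug dilutions in RPMI1640 and incubated at 37 °C for 2 days.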

A. fumigatus AF293 [1] = experiment: Drug synergy (MIC in peptide-supplemented media); assay type: cell-based, Aspergillus fumigatus; details: RPMI1640, 37 °C, 48 h, CAS: paradoxical growth; for MIC of antifungal in combination with KKOO: MIC = <20% growth; for MIC of antifungal in combination with KKOO-NH2: MIC = well with <20% growth
Description: as §1, §2

C. neoformans H99 [2] = assay type: cell-based, Cryptococcus neoformans; details: RPMI1640, 37 °C; for MIC of antifungal in combination with KKOO / MIC of antifungal in combination with KKOO-NH2: 48 h
C. glabrata 2001 = assay type: cell-based, Candida glabrata; details: for MIC of antifungal in combination with KKOO / MIC of antifungal in combination with KKOO-NH2: RPMI1640, 37 °C, 48 h
Description: as §1, §2

A. fumigatus AF293 [3] = experiment: microbe, parasite or virus in culture; assay type: cell-based, Aspergillus fumigatus; details: Aspergillus fumigatus, AF293, 48 h
C. auris B11245 = experiment: microbe, parasite or virus in culture; assay type: cell-based, Candida auris; details: Candidozyma auris, B11245; compound alone; RPMI1640, 37 °C, 48 h; * = paradoxical growth observed (CAS); read-out: MIC
Outline: as §3

Cn MRL862 = assay type: cell-based, Cryptococcus neoformans; details: RPMI1640, 37 °C, 48 h
Description: as §1, §2

C. neoformans cdc50Δ = experiment: microbe, parasite or virus in culture; assay type: cell-based, Cryptococcus neoformans; details: Cryptococcus neoformans, 48 h
Outline: as §3

C. neoformans apt4Δ = experiment: microbe, parasite or virus in culture; assay type: cell-based, Cryptococcus neoformans; details: Cryptococcus neoformans, 48 h
Outline: as §3

C. neoformans MRL862 = experiment: microbe, parasite or virus in culture; assay type: cell-based, Cryptococcus neoformans; details: Cryptococcus neoformans, MRL862; compound alone; RPMI1640, 37 °C, 48 h; read-out: MIC
Outline: as §3

C. neoformans apt1Δ = experiment: microbe, parasite or virus in culture; assay type: cell-based, Cryptococcus neoformans; details: Cryptococcus neoformans, 48 h
Outline: as §3

C. neoformans H99 [4] = experiment: microbe, parasite or virus in culture; assay type: cell-based, Cryptococcus neoformans; details: Cryptococcus neoformans, H99; compound alone; RPMI1640, 37 °C, 48 h; read-out: MIC
Outline: as §3

C. neoformans crm1Δ = experiment: microbe, parasite or virus in culture; assay type: cell-based, Cryptococcus neoformans; details: Cryptococcus neoformans, 48 h
Outline: as §3

C. neoformans apt2Δ = experiment: microbe, parasite or virus in culture; assay type: cell-based, Cryptococcus neoformans; details: Cryptococcus neoformans, 48 h
Outline: as §3

C. neoformans Crm1^OE = experiment: microbe, parasite or virus in culture; assay type: cell-based, Cryptococcus neoformans; details: Cryptococcus neoformans, 48 h
Outline: as §3

C. neoformans apt3Δ = experiment: microbe, parasite or virus in culture; assay type: cell-based, Cryptococcus neoformans; details: Cryptococcus neoformans, 48 h
Outline: as §3

[5] = in the presence of 2 μg/mL KKOO-NH2

For `CC[C@H](C)C[C@H](C)CCCCCCCCC(=O)N[C@H]1C[C@@H](O)[C@@H](NCCN)NC(=O)[C@@H]2[C@@H](O)CCN2C(=O)[C@H]([C@H](O)CCN)NC(=O)[C@H]([C@H](O)[C@@H](O)c2ccc(O)cc2)NC(=O)[C@@H]2C[C@@H](O)CN2C(=O)[C@H]([C@@H](C)O)NC1=O` [CAS, caspofungin], the “MIC of antifungal in combination with KKOO” value (Cg FKS2 S663P; +0 μg/mL KKOO (control)) was 4 µg/mL, the “MIC of antifungal in combination with KKOO-NH2” value (“MIC … with KKOO-NH2” below) (Cg FKS2 S663P; +0 μg/mL KKOO-NH2 (control)) was 4 µg/mL and the “MIC … with KKOO-NH2” value (Cg FKS2 S663P; +1 μg/mL KKOO-NH2) was 2 µg/mL. For the same compound, the “MIC of antifungal in combination with KKOO” value (Cg FKS2 S663P; +1 μg/mL KKOO) was 2 µg/mL, the “MIC … with KKOO-NH2” value (Cg FKS2 S663P; +2 μg/mL KKOO-NH2) was 1 µg/mL and the “MIC of antifungal in combination with KKOO” value (Cg FKS2 S663P; +2 μg/mL KKOO) was 2 µg/mL. The “MIC … with KKOO-NH2” value (Cg FKS2 S663P; +4 μg/mL KKOO-NH2) was 1 µg/mL, the “MIC of antifungal in combination with KKOO” value (Cg FKS2 S663P; +4 μg/mL KKOO) was 1 µg/mL and the “reduction of MIC of antifungal” value (Cg FKS2 S663P; [5]) was 4 fold. For the same compound, the MIC (C. albicans SC5413) was 0.25 µg/mL (≈ 0.229 µM), the “MIC of antifungal in combination with KKOO” value (A. fumigatus AF293 [1]; +0 μg/mL KKOO (control)) was 0.125 µg/mL and the “MIC … with KKOO-NH2” value (A. fumigatus AF293 [1]; +0 μg/mL KKOO-NH2 (control)) was 0.125 µg/mL. The “MIC … with KKOO-NH2” value (A. fumigatus AF293 [1]; +1 μg/mL KKOO-NH2) was 0.031 µg/mL, the “MIC of antifungal in combination with KKOO” value (A. fumigatus AF293 [1]; +1 μg/mL KKOO) was 0.062 µg/mL and the “MIC … with KKOO-NH2” value (A. fumigatus AF293 [1]; +2 μg/mL KKOO-NH2) was 0.031 µg/mL. The “MIC of antifungal in combination with KKOO” value (A. fumigatus AF293 [1]; +2 μg/mL KKOO) was 0.031 µg/mL, the “MIC … with KKOO-NH2” value (A. fumigatus AF293 [1]; +4 μg/mL KKOO-NH2) was 0.031 µg/mL and the “MIC of antifungal in combination with KKOO” value (A. fumigatus AF293 [1]; +4 μg/mL KKOO) was 0.031 µg/mL. For the same compound, the “MIC … with KKOO-NH2” value (A. fumigatus AF293 [1]; +8 μg/mL KKOO-NH2) was 0.031 µg/mL, the “MIC of antifungal in combination with (FITC)KKOO” value (“MIC of antifungal … (FITC)KKOO” for short) (C. neoformans H99 [2]; +0 μg/mL (FITC)KKOO) was 16 µg/mL and the “MIC of antifungal in combination with KKOO” value (C. neoformans H99 [2]; +0 μg/mL KKOO (control)) was 16 µg/mL. For the same compound, the “MIC … with KKOO-NH2” value (C. neoformans H99 [2]; +0 μg/mL KKOO-NH2 (control)) was 16 µg/mL, the “MIC … with KKOO-NH2” value (C. neoformans H99 [2]; +1 μg/mL KKOO-NH2) was 16 µg/mL and the “MIC of antifungal in combination with KKOO” value (C. neoformans H99 [2]; +1 μg/mL KKOO) was 16 µg/mL. For the same compound, the “MIC … with KKOO-NH2” value (C. neoformans H99 [2]; +2 μg/mL KKOO-NH2) was 16 µg/mL, the “MIC of antifungal in combination with KKOO” value (C. neoformans H99 [2]; +2 μg/mL KKOO) was 16 µg/mL and the “MIC of antifungal … (FITC)KKOO” value (C. neoformans H99 [2]; +4 μg/mL (FITC)KKOO) was 16 µg/mL. The “MIC … with KKOO-NH2” value (C. neoformans H99 [2]; +4 μg/mL KKOO-NH2) was 4 µg/mL, the “MIC of antifungal in combination with KKOO” value (C. neoformans H99 [2]; +4 μg/mL KKOO) was 16 µg/mL and the “MIC of antifungal … (FITC)KKOO” value (C. neoformans H99 [2]; +8 μg/mL (FITC)KKOO) was 16 µg/mL. For the same compound, the “MIC of antifungal in combination with KKOO” value (C. neoformans H99 [2]; +8 μg/mL KKOO) was 8 µg/mL, the “MIC of antifungal in combination with KKOO” value (C. glabrata 2001; +0 μg/mL KKOO (control)) was 0.5 µg/mL and the “MIC … with KKOO-NH2” value (C. glabrata 2001; +0 μg/mL KKOO-NH2 (control)) was 0.5 µg/mL. For the same compound, the “MIC … with KKOO-NH2” value (C. glabrata 2001; +1 μg/mL KKOO-NH2) was 0.5 µg/mL, the “MIC of antifungal in combination with KKOO” value (C. glabrata 2001; +1 μg/mL KKOO) was 0.5 µg/mL and the “MIC … with KKOO-NH2” value (C. glabrata 2001; +2 μg/mL KKOO-NH2) was 0.125 µg/mL. The “MIC of antifungal in combination with KKOO” value (C. glabrata 2001; +2 μg/mL KKOO) was 0.25 µg/mL, the “MIC … with KKOO-NH2” value (C. glabrata 2001; +4 μg/mL KKOO-NH2) was 0.004 µg/mL and the “MIC of antifungal in combination with KKOO” value (C. glabrata 2001; +4 μg/mL KKOO) was 0.016 µg/mL. The “MIC of antifungal in combination with KKOO” value (C. glabrata 2001; +8 μg/mL KKOO) was 0.556 µg/mL, the “reduction of MIC of antifungal” value (C. glabrata 2001; [5]) was 4 fold and the MIC (A. fumigatus AF293 [3]) was 0.125 µg/mL (≈ 0.114 µM). The MIC (C. auris B11245) was 1 µg/mL (≈ 0.915 µM), the “MIC of antifungal in combination with KKOO” value (Cn MRL862; +0 μg/mL KKOO (control)) was 16 µg/mL and the “MIC … with KKOO-NH2” value (Cn MRL862; +0 μg/mL KKOO-NH2 (control)) was 16 µg/mL. The “MIC … with KKOO-NH2” value (Cn MRL862; +1 μg/mL KKOO-NH2) was 16 µg/mL, the “MIC of antifungal in combination with KKOO” value (Cn MRL862; +1 μg/mL KKOO) was 16 µg/mL and the “MIC … with KKOO-NH2” value (Cn MRL862; +2 μg/mL KKOO-NH2) was 8 µg/mL. For the same compound, the “MIC of antifungal in combination with KKOO” value (Cn MRL862; +2 μg/mL KKOO) was 16 µg/mL, the “MIC … with KKOO-NH2” value (Cn MRL862; +4 μg/mL KKOO-NH2) was 4 µg/mL and the “MIC of antifungal in combination with KKOO” value (Cn MRL862; +4 μg/mL KKOO) was 8 µg/mL. The MIC (C. neoformans cdc50Δ) was 4 µg/mL (≈ 3.66 µM), the MIC (C. neoformans apt4Δ) was 16 µg/mL (≈ 14.6 µM) and the MIC (C. neoformans MRL862) was 16 µg/mL (≈ 14.6 µM). It also gave an MIC (C. neoformans apt1Δ) of 8 µg/mL (≈ 7.32 µM), an MIC (C. neoformans H99 [4]) of 16 µg/mL (≈ 14.6 µM) and an MIC (C. neoformans crm1Δ) of 16 µg/mL (≈ 14.6 µM). It also gave an MIC (C. neoformans apt2Δ) of 16 µg/mL (≈ 14.6 µM), an MIC (C. neoformans Crm1^OE) of 16 µg/mL (≈ 14.6 µM) and an MIC (C. neoformans apt3Δ) of 16 µg/mL (≈ 14.6 µM).
